Test results: US20150105252A1, “SUBSTITUTED PYRAZOLES AS HERBICIDES” (E I DU PONT DE NEMOURS AND COMPANY, priority 2013, published 2015)

What was measured:
[1] = test system: bluegrass; assay: Test D preemergence; format: in vivo, Poa annua; conditions: scale 0 to 100
Summary of the method: (§1)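 Whole-plant herbicidal activity; pre- and postemergence sprays. Soil: silt loam (pre); peat/vermiculite medium (post, 1–4 leaf). Assessment: 14–21 days, visual, 0 = no effect, 100 = complete control.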

[2] = test system: field poppy; assay: Test D preemergence; format: in vivo, Papaver rhoeas; conditions: scale 0 to 100
Summary of the method: as §1

[3] = test system: windgrass; assay: Test D preemergence; format: in vivo, Apera spica-venti; conditions: scale 0 to 100
Summary of the method: as §1

[4] = test system: canarygrass; assay: Test D postemergence; format: in vivo, Phalaris minor; conditions: scale 0 to 100
Summary of the method: as §1

[5] = test system: bromegrass, downy; assay: Test D postemergence; format: in vivo, Bromus tectorum; conditions: scale 0 to 100
Summary of the method: as §1

[6] = test system: field violet; assay: Test D postemergence; format: in vivo, Viola arvensis; conditions: scale 0 to 100
Summary of the method: as §1

[7] = test system: pigweed; assay: Test D postemergence; format: in vivo, Amaranthus retroflexus; conditions: scale 0 to 100
Summary of the method: as §1

[8] = test system: windgrass; assay: Test D postemergence; format: in vivo, Apera spica-venti; conditions: scale 0 to 100
Summary of the method: as §1

[9] = test system: corn; assay: Test F preemergence; format: in vivo, Zea mays
Summary of the method: (§2)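 Visual rating 0–100 vs untreated controls (0 = no effect, 100 = complete control) after 14–21 d greenhouse. Pre: seeds in silt loam soil. Post: plants 2–18 cm, 1–4 leaf. Formulation: non-phytotoxic solvent mix + surfactant.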

[10] = test system: Surinam grass; assay: Test F preemergence; format: in vivo, Brachiaria decumbens
Summary of the method: as §2

[11] = test system: crabgrass, Brazil; assay: Test F preemergence; format: in vivo, Digitaria horizontalis
Summary of the method: as §2

[12] = test system: common ragweed; assay: Test F preemergence; format: in vivo, Ambrosia elation
Summary of the method: as §2

[13] = test system: barnyardgrass; assay: Test F preemergence; format: in vivo, Echinochloa crus-galli
Summary of the method: as §2

[14] = test system: southern sandbur; assay: Test F preemergence; format: in vivo, Cenchrus echinatus
Summary of the method: as §2

[15] = Preemergence, 62 g ai/ha, scale 0 to 100
[16] = Preemergence, 125 g ai/ha, scale 0 to 100
[17] = preemergence, 8 g ai/ha, scale 0 to 100, 100 is complete control
[18] = Preemergence, 16 g ai/ha, scale 0 to 100

**Q.** For `CCOc1cc(C(=O)NC(C)C)nn1Cc1ccnc(C(F)(F)F)c1` [Compound 188], which “Plant response rating, Bluegrass” value ([1]; 31 g ai/ha) is on record?
**A.** 55

**Q.** And the “Plant response rating, Bluegrass” value ([1]; 62 g ai/ha)?
**A.** 70

**Q.** And the “Plant response rating, Bluegrass” value ([1]; 125 g ai/ha)?
**A.** 100

**Q.** And the “Plant response rating, Bluegrass” value ([1]; 250 g ai/ha)?
**A.** 100

**Q.** And the “Plant response rating, Field Poppy” value ([2]; 62 g ai/ha)?
**A.** 100

**Q.** And the “Plant response rating, Field Poppy” value ([2]; 125 g ai/ha)?
**A.** 100

**Q.** What about the “Plant response rating, Field Poppy” value ([2]; 250 g ai/ha) of the same compound?
**A.** 100

**Q.** What about the “Plant response rating, Windgrass” value ([3]; 62 g ai/ha) of the same compound?
**A.** 100

**Q.** What about the “Plant response rating, Windgrass” value ([3]; 125 g ai/ha) of the same compound?
**A.** 100

**Q.** And the “Plant response rating, Windgrass” value ([3]; 250 g ai/ha)?
**A.** 100

**Q.** And the “Canarygrass plant response rating” value ([4]; Postemergence, 31 g ai/ha)?
**A.** 15

**Q.** What about the “Canarygrass plant response rating” value ([4]; Postemergence, 125 g ai/ha) of the same compound?
**A.** 20

**Q.** And the “Canarygrass plant response rating” value ([4]; Postemergence, 250 g ai/ha)?
**A.** 35

**Q.** What about the “Canarygrass plant response rating” value ([4]; postemergence, 62 g ai/ha) of the same compound?
**A.** 15

**Q.** What about the “Bromegrass, Downy plant response rating” value ([5]; Postemergence, 31 g ai/ha) of the same compound?
**A.** 15

**Q.** What about the “Bromegrass, Downy plant response rating” value ([5]; Postemergence, 125 g ai/ha) of the same compound?
**A.** 15

**Q.** What about the “Bromegrass, Downy plant response rating” value ([5]; Postemergence, 250 g ai/ha) of the same compound?
**A.** 20

**Q.** What about the “Bromegrass, Downy plant response rating” value ([5]; postemergence, 62 g ai/ha) of the same compound?
**A.** 15

**Q.** And the “Field Violet plant response rating” value ([6]; Postemergence, 31 g ai/ha)?
**A.** 85

**Q.** And the “Field Violet plant response rating” value ([6]; Postemergence, 125 g ai/ha)?
**A.** 100

**Q.** What about the “Field Violet plant response rating” value ([6]; Postemergence, 250 g ai/ha) of the same compound?
**A.** 100

**Q.** And the “Field Violet plant response rating” value ([6]; postemergence, 62 g ai/ha)?
**A.** 85

**Q.** What about the “Pigweed plant response rating” value ([7]; Postemergence, 31 g ai/ha) of the same compound?
**A.** 40

**Q.** And the “Pigweed plant response rating” value ([7]; Postemergence, 125 g ai/ha)?
**A.** 60

**Q.** What about the “Pigweed plant response rating” value ([7]; Postemergence, 250 g ai/ha) of the same compound?
**A.** 80

**Q.** And the “Pigweed plant response rating” value ([7]; postemergence, 62 g ai/ha)?
**A.** 40

**Q.** And the “Windgrass plant response rating” value ([8]; Postemergence, 31 g ai/ha)?
**A.** 20

**Q.** What about the “Windgrass plant response rating” value ([8]; Postemergence, 125 g ai/ha) of the same compound?
**A.** 35

**Q.** What about the “Windgrass plant response rating” value ([8]; Postemergence, 250 g ai/ha) of the same compound?
**A.** 45

**Q.** And the “Windgrass plant response rating” value ([8]; postemergence, 62 g ai/ha)?
**A.** 20

**Q.** And the “Plant response rating, Corn” value [9, 15]?
**A.** 15

**Q.** What about the “Plant response rating, Corn” value [9, 16] of the same compound?
**A.** 65

**Q.** What about the “Plant response rating, Corn” value [9, 17] of the same compound?
**A.** 20

**Q.** And the “Plant response rating, Surinam Grass” value [10, 15]?
**A.** 100

**Q.** What about the “Plant response rating, Surinam Grass” value [10, 16] of the same compound?
**A.** 100

**Q.** What about the “Plant response rating, Surinam Grass” value [10, 17] of the same compound?
**A.** 20

**Q.** What about the “Plant response rating, Crabgrass, Brazil” value [11, 18] of the same compound?
**A.** 100

**Q.** What about the “Plant response rating, Crabgrass, Brazil” value [11, 15] of the same compound?
**A.** 100

**Q.** And the “Plant response rating, Crabgrass, Brazil” value [11, 16]?
**A.** 100

**Q.** What about the “Plant response rating, Crabgrass, Brazil” value [11, 17] of the same compound?
**A.** 35

**Q.** And the “Plant response rating, Common Ragweed” value [12, 18]?
**A.** 30

**Q.** And the “Plant response rating, Common Ragweed” value [12, 15]?
**A.** 90

**Q.** And the “Plant response rating, Common Ragweed” value [12, 16]?
**A.** 90

**Q.** What about the “Plant response rating, Common Ragweed” value [12, 17] of the same compound?
**A.** 0

**Q.** What about the “Plant response rating, Barnyardgrass” value [13, 18] of the same compound?
**A.** 25

**Q.** What about the “Plant response rating, Barnyardgrass” value [13, 15] of the same compound?
**A.** 80

**Q.** What about the “Plant response rating, Barnyardgrass” value [13, 16] of the same compound?
**A.** 100

**Q.** And the “Plant response rating, Barnyardgrass” value [13, 17]?
**A.** 0

**Q.** What about the “Plant response rating, Southern Sandbur” value [14, 15] of the same compound?
**A.** 65

**Q.** What about the “Plant response rating, Southern Sandbur” value [14, 16] of the same compound?
**A.** 100

**Q.** And the “Plant response rating, Southern Sandbur” value [14, 17]?
**A.** 0
